Earlier results in patent publication US8523569B2, “Controlled release local anesthetic for post dental surgery and method of use” (priority 2007, dated 2013).

Settings: immediate release vasoconstrictor, known to the art

SMILES: CNC[C@H](O)c1ccc(O)c(O)c1 [epinephrine]
- prolongation of local anesthetic activity, at best: ≤ 1 h
